In patent US9617311B2, “Use of PEDF-derived polypeptides for promoting stem cells proliferation and wound healing” (Mackay Memorial Hospital, priority 2011, dated 2017):

Tests used:
LSCs in the limbus [1] = experiment: Limbal epithelium thickness and ΔNp63α-positive LSC level on day 5 post corneal wounding; type: in vivo, C57BL/6 mice; conditions: day 5 post-wounding; for thickness of the limbus / limbal epithelia: compared with normal unwounded eye; for levels of ΔNp63α-positive LSCs in limbus: control ointment 38.9±2.8%, normal unwounded eye 74.8±6.3%
From the text: FIG. 4A provides histologic photographs (left panels, Hematoxylin and Eosin (H&E) staining, magnification, ×400), immunofluorescence microscopy photographs (middle panels, magnification, ×1000), and merged photographs (right panels); together, they illustrate layers of stratified limbal epithelium of mice at day 5 post-corneal injury according to the previous example of the present disclosure. […] Normal indicates uninjured eye. Cornea of normal eye that has no ΔNp63α-positive cell acted as ΔNp63α negative immunostaining control. FIG. 4B is a histogram illustrating levels of ΔNp63α-positive cells at limbus. Results of immunofluorescence were evaluated from 6 sections per mouse cornea, and 6 mice at each treatment. A labeling index was computed as the number of labeled cells divided by the total number of cells observed by a Hoechst 33258 fluorescent nuclear stain. P<0.005 versus control eye.
(§1) De-paraffinized tissue sections or 4% paraformaldehyde-fixed LSCs were blocked with 10% goat serum and 5% BSA in PBST (PBS containing 0.1% Tween-20) for 1 hour. Staining was done using primary antibodies against ΔNp63α (1:150 dilution), BrdU (1:250 dilution), and keratin-3 (1:250 dilution) at 37° C. for 2 hours, followed by incubation with the appropriate rhodamine- or FITC-conjugated donkey IgG (1:500 dilution) for 1 hour at RT. Nuclei were identified by counterstaining with Hoechst 33258 for 7 minutes. Images were captured using a Zeiss epifluorescence microscope with a CCD camera and photographs were taken by using the Axiovert software.
The experiments were performed using eight-week-old female C57BL/6 mice, and the procedures were approved by the Mackay Memorial Hospital Review Board for animal investigation. Animals were anesthetized by an intraperitoneal injection of a mixture of zoletil (6 mg/kg) and xylazine (3 mg/kg). One filter paper (0.9 mm diameter) soaked with 20% ethanol was placed on the central cornea of right eye for one minute and then irrigated extensively with PBS. Subsequently, mechanical epithelial scrape was performed using a punch under a dissection microscope to create a circular injury (2 mm diameter) at the entire corneal region of the mouse eye without encroaching the corneal stroma, limbus or conjunctiva.
Each synthetic peptide (the 39-mer, 34-mer, 29-mer, 25-mer, 20-mer, 18-mer, Mo 29-mer or Mo 20-mer) was reconstituted in DMSO as stock (5 mM) and mixed with TOBREX® eye ointment (Alcon; containing 0.3% Tobramycin and 0.5% Chlorobutanol) to a concentration 50 μM. In each of the treatment group (n=6-10), the right eye was treated with 20 μl eye ointment containing the synthetic peptide once a day after the scrape injury. In the control group (n=20), right eye was treated with 20 μl of eye ointment mixed with vehicle DMSO. Wound size was determined by staining with topical fluorescein (Fluor-I-Strip, Ayerst Laboratories, Philadelphia, Pa.) and photographed with a digital camera. The area of defect was quantified from the photographs using a computer-assisted image analyzer (Adobe Photoshop CS3 10.0) and was calculated as the percentage of residual epithelial defect at each time point/initial wound area.
On average, the levels of ΔNp63α-positive LSCs in limbus of normal unwounded eye is 74.8±6.3%; whereas the levels of ΔNp63α-positive LSCs in corneal wounded eyes treated with control, 29-mer, 20-mer, 18-mer and Mo 20-mer ointment were 38.9±2.8%, 77.0±4.1%, 73.1±8.6%, 39.4±2.6%, and 76.3±6.2% respectively (FIG. 4B). Taken together, 29-mer or 20-mer treatment can activate LSCs in vivo coincidently with more prominent corneal re-epithelialization than corneal regeneration by native progress.

LSCs in the limbus [2] = experiment: In vivo LSC proliferation in limbus 24 hours after corneal wounding, BrdU/ΔNp63α double-immunostaining; parameters: species or system C57BL/6 mice; conditions: peptide eye ointment, control 15.0±7.6%
Experimental: as §1
2×10^5 limbal cells (the 1st passage) were seeded at a slide coated with FNC COATING MIX® solution (Athena Enzyme Systems, Baltimore, Md.) and incubated with a culture medium for one day. BrdU (final, 10 μM) was added to the culture for 2 hours. […] DNA synthesis was assessed by BrdU labeling with anti-BrdU antibodies. […]
Each synthetic peptide (the 39-mer, 34-mer, 29-mer, 25-mer, 20-mer, 18-mer, Mo 29-mer or Mo 20-mer) was reconstituted in DMSO as stock (5 mM) and mixed with TOBREX® eye ointment (Alcon; containing 0.3% Tobramycin and 0.5% Chlorobutanol) to a concentration 50 μM. […] Wound size was determined by staining with topical fluorescein (Fluor-I-Strip, Ayerst Laboratories, Philadelphia, Pa.) and photographed with a digital camera. […]

Lgr6-positive HFSCs = experiment: Distribution of Lgr6-positive HFSCs at HE tissue at day 4 post skin wounding, immunohistochemistry; type: in vivo, C57L/B6 mice; conditions: wounds treated for 4 days
From the text: FIGS. 10A and 10B illustrate histological analysis of the distribution of HFSCs at day 4 post-skin wounding. FIG. 10A provides photographs in which specimens were immunehistologically stained with Lgr6 to observe HFSC-derived cells at HE tissue and counterstained with hematoxylin to observe nuclei. Original magnification, ×400. FIG. 10B presents photographs in which sections of 20-mer ointment-treated wound were stained with BrdU- and Lgr6-specific antibodies. Lgr6 is expressed in the cell nucleus as confirmed by Hoechst 33258 counterstaining.
To perform full-thickness skin excision, 8- to 10-week-old C57L/B6 mice were respectively anesthetized by an intraperitoneal injection of a mixture of zoletil (6 mg/kg) and xylazine (3 mg/kg). Two full-thickness skin excisional wounds, 4 mm in diameter were made on either side of the dorsal midline using Sklar Tru-Punch disposable biopsy punch (Sklar, West Chester, Pa., USA). In each treatment group (n=6), the skin wound was treated with 25 μl skin ointment (containing 50 μM synthetic peptide and 0.006 μl DMSO vehicle) once daily after the skin scraping. In the control group (n=6), skin wound was treated with 25 μl of skin ointment with equal concentration of DMSO. Each gram of the above skin ointment contains 5 mg neomycin sulfate and 12.5 mg Bacitracin Zinc. Wounds were left uncovered and harvested 4 and 7 days after injury. […]

Sequence	thickness of the limbus / limbal epithelia (LSCs in the limbus [1])	levels of ΔNp63α-positive LSCs in limbus (LSCs in the limbus [1])	levels of BrdU- and ΔNp63α-positive cells in the limbus (LSCs in the limbus [2])	Lgr6-positive cells at HE tissue versus control wound (Lgr6-positive HFSCs)
SLGAEHRTESVIHRALYYDL [Mo 20-mer, synthetic peptide derived from mouse PEDF]	returned to full-thickness of stratified layers	76.3±6.2%		
EQRTESIIHRALYYDLIS [18-mer]	thinner	39.4±2.6%		
SLGAEQRTESIIHRALYYDLISSPDIHGT [29-mer, short synthetic PEDF peptide derived from the 39-mer]	returned to full-thickness of stratified layers	77.0±4.1%	43.2±4.6%	
SLGAEQRTESIIHRALYYDL [20-mer, synthetic peptide identical to residues 11-30 of the 39-mer]	returned to full-thickness of stratified layers	73.1±8.6%	42.4±4.3%	markedly increased
